According to US9388160B2, “Quinazoline derivatives as kinases inhibitors and methods of use thereof” (TELIGENE LTD., priority 2011, dated 2016):

Key:
[1] = tested on: NCI-H-1975 cell line xenograft; test: In vivo subcutaneous NCI-H-1975 cell line xenograft model in nude mice; set-up: species or system Balb/c nude mice
Excerpt: A representative protocol for the in vivo experiment is as followed to establish the subcutaneous NCI-H-1975 cell line xenograft model in nude mice and to evaluate the in vivo therapeutic efficacy of the compounds: Animals: Male Balb/c nude mice (6˜8 weeks old) were obtained from SLAC Laboratory Animal, Shanghai, China. Animals were maintained under SPF conditions in sterile filter top cages and housed on HEPA-filtered ventilated racks. Animals received sterile rodent chow and water ad libitum. Cell line: NCI-H-1975 cell line, S.c. Xenograft Models in Athymic Mice: Cells for implantation into athymic mice were harvested and pelleted by centrifugation at 1200 r/min for 5 min. Cells were washed once and resuspended in sterile PBS buffer with 5×10^6 in 200 μl. Then cells were implanted s.c. into the right scapular region of each mouse and allowed to grow to 200-300 mm^3 before the administration of compound. Preparation of the Dose Formulation: each compound was suspensioned in 0.5% CMC-Na. Randomization: When tumor volumes approach 200-300 mm^3, the mice will be randomized into 5 groups according to the tumor volume. The day will be denoted as D1 and the treatments will be started at this day. Administered: Dose will be administered with oral gavage needle once daily for number of days. Treatment of compounds administered in 0.5% CMC—Na by p.o. gavage was initiated when tumors were 200˜300 mm^3 in volume. Observations: After inoculation, the animals will be checked daily for morbidity and mortality. At the time of routine monitoring, the animals will be checked for any effects of tumor growth and treatments on normal behavior such as mobility, body weight gain/loss (body weights will be measured twice weekly or every other day), eye/hair matting and any other abnormal effect. Death and observed clinical signs will be recorded on the basis of the numbers of animals within each subset. Tumor Size Measurements: Tumor volume was determined by measurement with electronic vernier calipers every 3 days and tumor volume was calculated as the product of its length×width^2×0.5. Effect studies: Tumor volume was expressed on indicated days as the mean tumor volume±SD. Percentage (%) inhibition values were measured for drug-treated mice compared with vehicle-treated mice and are calculated as follows: Tumor growth inhibition(TGI, %)=100−[MTV treated/MTV control]×100. Significant differences between the treated versus the control groups (p<0.05) were determined using t test. At study endpoint, after blood collection, mice were practicsed euthanasia by cervical dislocation, the tumor tissue was collected first, then abdominal cavity was cut open, liver and spleen were excised, then weight after the gallblader was removed respectively. Organ weight and Organ/body weight ratios between the treated versus the control groups were compared. Ratios was calculated as follows: Ratios=Organ weight/(body weight-tumor weight). Both organ weight and Organ/body weight ratios were also expressed as mean±SD, and significant differences between the treated versus the control groups (p<0.05) were determined using t test.
The following Table D lists compounds representative of the invention and their activity in subcutaneous NCI-H-1975 cell line xenograft model in nude mice described above. Compound 11 and Dacomitinib were dosed at 15 mg/kg by oral gavage once daily for number of days. Tumor growth inhibition (TGI, %) was calculated.

A431 Cell line = test: Cell proliferation assay (MTT), A431; type: cell-based; settings: Homo sapiens, A-431, 72 hours treatment
Description: (§1) A representative number of compounds were assayed against different cancer cell lines such as NCI-H-1975 or A431 using the cell proliferation assays:
(§2) Cell Proliferation Assays: • 1. 5×10^3 cells per well in 100 μl of medium were seeded in 96-well plate, here the medium contained 5% FBS • 2. 24 hours later, 100 μl fresh medium was added with various concentrations of compounds into each well, while the medium here was free of FBS • 3. After the cells were treated with compounds for 72 hours, 20 μl MTT (5 mg/ml) was added into each well, and then the assay plate was incubated at 37° C. for 4 more hours. • 4. The assay plate was centrifuged at 800 g for 10 min. The medium was aspirated, 150 μl DMSO was added into each well. The plate was gently shaked for 10 min. • 5. The absorbance at 570 nm was measured on the plate reader. • 6. IR %=(WC−WT)/WC*100%.

SK-Br-3 Cell line = test: Cell proliferation assay (MTT), SK-Br-3; type: cell-based; settings: Homo sapiens, 72 hours treatment
Description: as §1, §2

TA1535 and TA1537 = test: Ames Assay, overall mutagenic potential; settings: TA1535 and TA1537, with S9 mixture, 3.3-66.6 μM
Description: (§3) A representative number of compounds were tested in Ames Assay for assess the mutagenic potential.
(§4) Preparations of culture media/plates and reagents: 0.5 mmol L-histidine-0.5 mmol/L biotin solution; 20% glucose solution; nutrient broth; KCl salt solution (1.65 M KCl+0.4 M MgCl2); 0.2 M phosphate buffer (pH 7.4); co-factors (NADP; glucose 6-phosphate) for S9 mixture; top agar medium; minimal agar medium (Vogel-Bonner medium E); bottom agar medium.
(§5) Preparation of the enriched culture: Take nutrient broth 5 mL, added it to sterile tubes with the cryopreserved strain culture TA1535 and TA1537. After inoculation in nutrient broth, the cultures were kept at 37° C. with oscillation of 100 times/min for 10 hours. The strain cultures should have about 1˜2×10^9 viable cells per milliliters.
(§6) Preparation of 10 ml S9 mixture: Co-factor mixture 9 mL by glucose 6-phosphate 42.3 mg, […] 14.2 mg, 6-phosphate dehydrogenase (3 unit/μl) 10 μl plus riboflavin (9.6 mg dissolved in 700 μL water), and then mixed with 1 ml of the induced rat S9.
Plate incorporation method: In the experiment, place 2 ml of the top agar medium containing 0.5 mmol/L histidine-0.5 mmol/L biotin into the test tubes kept in 45° C. water bath. […]

EGFR = EGFR (Homo sapiens (Human), UniProt P00533); test: In vitro EGFR kinase activity inhibition assay (Kinase-Glo Plus luminescence); type: biochemical; settings: 10 μM ATP, poly(Glu,Tyr) substrate
Chain of EGFR (P00533 25-1210): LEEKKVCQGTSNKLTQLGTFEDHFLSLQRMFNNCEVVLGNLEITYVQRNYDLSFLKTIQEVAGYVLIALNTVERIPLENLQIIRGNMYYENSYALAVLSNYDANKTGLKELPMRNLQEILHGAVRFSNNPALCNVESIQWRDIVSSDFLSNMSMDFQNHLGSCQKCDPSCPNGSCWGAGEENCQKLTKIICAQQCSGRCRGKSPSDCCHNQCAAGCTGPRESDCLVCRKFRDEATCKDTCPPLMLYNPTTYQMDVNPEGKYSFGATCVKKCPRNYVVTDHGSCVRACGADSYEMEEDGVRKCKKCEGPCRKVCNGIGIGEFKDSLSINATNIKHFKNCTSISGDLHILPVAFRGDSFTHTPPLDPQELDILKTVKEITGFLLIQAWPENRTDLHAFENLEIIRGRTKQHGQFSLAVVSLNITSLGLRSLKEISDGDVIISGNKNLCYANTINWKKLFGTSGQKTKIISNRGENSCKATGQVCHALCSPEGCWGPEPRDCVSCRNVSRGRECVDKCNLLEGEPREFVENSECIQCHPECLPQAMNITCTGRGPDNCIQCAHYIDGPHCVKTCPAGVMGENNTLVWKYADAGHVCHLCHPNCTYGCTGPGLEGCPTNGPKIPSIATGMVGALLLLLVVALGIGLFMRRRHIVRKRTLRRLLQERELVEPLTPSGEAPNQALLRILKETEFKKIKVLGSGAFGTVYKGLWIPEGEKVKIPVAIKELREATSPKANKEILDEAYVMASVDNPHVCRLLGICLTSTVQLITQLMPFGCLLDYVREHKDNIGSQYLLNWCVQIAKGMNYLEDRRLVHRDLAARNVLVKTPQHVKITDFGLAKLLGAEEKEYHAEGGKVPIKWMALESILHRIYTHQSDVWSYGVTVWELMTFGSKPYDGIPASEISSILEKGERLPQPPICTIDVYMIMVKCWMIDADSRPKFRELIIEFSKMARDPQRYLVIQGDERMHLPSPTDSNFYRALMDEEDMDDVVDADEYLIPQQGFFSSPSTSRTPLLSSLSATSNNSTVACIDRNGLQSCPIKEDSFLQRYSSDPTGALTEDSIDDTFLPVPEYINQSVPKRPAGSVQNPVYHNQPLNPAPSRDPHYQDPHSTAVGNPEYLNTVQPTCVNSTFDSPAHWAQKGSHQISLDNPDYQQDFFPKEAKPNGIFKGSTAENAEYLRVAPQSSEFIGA
Description: (§7) • 1. […] It measures kinase activity by quantitating the amount of ATP remaining in solution following a kinase reaction. The luminescent signal from the assay is correlated with the amount of ATP present and is inversely correlated with the amount of kinase activity. […] The luminescence data were analyzed using the computer software, Graphpad Prism. […] The values of % activity versus a series of compound concentrations were then plotted using non-linear regression analysis of Sigmoidal dose-response curve generated with the equation Y=B+(T−B)/1+10^((LogEC50−X)×Hill Slope), where Y=percent activity, B=minimum percent activity, T=maximum percent activity, X=logarithm of compound and Hill Slope=slope factor or Hill coefficient. The IC50 value was determined by the concentration causing a half-maximal percent activity.

EGFR(T790M/L858R) = EGFR(T790M/L858R) (Homo sapiens (Human), UniProt P00533, L858R/T790M); test: In vitro EGFR(T790M/L858R) kinase activity inhibition assay (Kinase-Glo Plus luminescence); type: biochemical; settings: 10 μM ATP, poly(Glu,Tyr) substrate
Chain of EGFR(T790M/L858R) (P00533 25-1210 T790M/L858R): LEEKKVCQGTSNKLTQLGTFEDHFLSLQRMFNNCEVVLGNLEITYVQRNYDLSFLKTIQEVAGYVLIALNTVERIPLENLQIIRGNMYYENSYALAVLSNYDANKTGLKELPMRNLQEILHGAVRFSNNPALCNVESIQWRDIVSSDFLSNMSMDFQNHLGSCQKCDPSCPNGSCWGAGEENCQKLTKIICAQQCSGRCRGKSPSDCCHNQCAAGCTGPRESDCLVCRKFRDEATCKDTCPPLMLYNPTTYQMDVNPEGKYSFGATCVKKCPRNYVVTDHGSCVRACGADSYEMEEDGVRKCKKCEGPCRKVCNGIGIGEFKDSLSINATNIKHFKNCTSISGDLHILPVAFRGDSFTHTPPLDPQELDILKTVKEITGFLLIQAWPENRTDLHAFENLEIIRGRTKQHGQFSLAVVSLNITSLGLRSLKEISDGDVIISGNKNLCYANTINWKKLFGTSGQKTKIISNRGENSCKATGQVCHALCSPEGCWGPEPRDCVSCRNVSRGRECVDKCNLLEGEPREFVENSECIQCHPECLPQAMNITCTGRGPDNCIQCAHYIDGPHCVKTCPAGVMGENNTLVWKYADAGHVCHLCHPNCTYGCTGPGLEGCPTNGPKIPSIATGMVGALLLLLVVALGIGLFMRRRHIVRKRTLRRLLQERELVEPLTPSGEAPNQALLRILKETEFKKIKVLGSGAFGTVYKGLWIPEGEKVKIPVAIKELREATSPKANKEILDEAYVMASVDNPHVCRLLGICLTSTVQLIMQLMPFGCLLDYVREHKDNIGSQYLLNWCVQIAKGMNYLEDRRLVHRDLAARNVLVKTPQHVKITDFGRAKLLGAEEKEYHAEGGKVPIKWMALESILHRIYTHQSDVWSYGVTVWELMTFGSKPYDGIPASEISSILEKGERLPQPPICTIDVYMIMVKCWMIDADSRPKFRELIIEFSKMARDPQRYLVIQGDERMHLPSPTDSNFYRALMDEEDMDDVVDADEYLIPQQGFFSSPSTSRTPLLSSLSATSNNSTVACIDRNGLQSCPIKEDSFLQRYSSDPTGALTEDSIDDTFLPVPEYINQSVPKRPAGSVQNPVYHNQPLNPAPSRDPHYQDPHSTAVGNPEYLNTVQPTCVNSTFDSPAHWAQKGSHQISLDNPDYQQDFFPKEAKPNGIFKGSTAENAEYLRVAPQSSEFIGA
Description: as §7

TA1535 = test: Ames Assay, plate incorporation, strain TA1535; settings: with S9 mixture
Description: as §3, §4, §5, §6
(§8) Plate incorporation method: In the experiment, place 2 ml of the top agar medium containing 0.5 mmol/L histidine-0.5 mmol/L biotin into the test tubes kept in 45° C. water bath. Into a 1.5 ml sterile Eppendorf tube, it was added 0.1 ml of the bacterial strain in the enriched broth, 0.1 ml of the test compound solution and 0.5 ml of the S9 mixture, thoroughly mixed and incubated for 30 minutes at 37° C. with shaker speed at 150 rpm/min. The liquid mixture in the Eppendorf tube was added to the top agar medium. After mixing it was poured rapidly into the plates with bottom agar plate, turning the plates to allow uniform distribution. Initially placed horizontally for condensation and then placed invertly for 48 hours at 37° C. Count and record the number of revertant colonies per dish.
(§9) Experiment controls: In addition to the set of doses (3.3, 8.3, 33.3 and 66.6 μM) for the test compounds, here are the controls: blank control, sterile control, solvent control, positive mutagen control (2-aminoanthracene at 10 μg/dish).

TA1537 = test: Ames Assay, plate incorporation, strain TA1537; settings: with S9 mixture
Description: as §3, §4, §5, §6, §8, §9

[2] = Day 3, 15 mg/kg oral gavage once daily
[3] = Day 7, 15 mg/kg oral gavage once daily

Row | Structure (SMILES) | Tumor growth inhibition (TGI, %) [1, 2] [%] | Tumor growth inhibition (TGI, %) [1, 3] [%] | IC50 (A431 Cell line) [µM] | IC50 (SK-Br-3 Cell line) [nM] | Ames Assay result (mutagenic potential) (TA1535 and TA1537) | IC50 (EGFR) [nM] | IC50 (EGFR(T790M/L858R)) [nM] | TA1535 Colony number (TA1535; 3.33 uM) | TA1535 Colony number (TA1535; 8.33 uM) | TA1535 Colony number (TA1535; 33.3 uM) | TA1535 Colony number (TA1535; 66.6 uM) | TA1537 Colony number (TA1537; 3.33 uM) | TA1537 Colony number (TA1537; 8.33 uM) | TA1537 Colony number (TA1537; 33.3 uM) | TA1537 Colony number (TA1537; 66.6 uM) | TA1535 Colony number (TA1535; 17.27 uM (10 μg/dish)) | TA1537 Colony number (TA1537; 17.27 uM (10 μg/dish)) | Tumor growth inhibition compared with Dacomitinib ([1]; 15 mg/kg oral gavage once daily)
1 | COc1cc2ncnc(Nc3ccc(F)c(Cl)c3)c2cc1NC(=O)/C=C/CN1CCCCC1 [Dacomitinib, reference compound] | 19.86 | 75.36 | 19.5 | 225 | – | – | – | – | – | – | – | – | – | – | – | – | – | –
2 | C#Cc1cccc(Nc2ncnc3cc(OC)c(NC(=O)/C=C/CN4CCCCC4)cc23)c1 [Compound 12, (E)-N-(4-((3-ethynylphenyl)amino)-7-methoxyquinazolin-6-yl)-4-(piperidin-1-yl)but-2-enamide] | – | – | 4.9 | 116 | positive | < 10 | < 100 | 17 | 9 | 17 | 9 | 8 | 22 | 47 | 66 | – | – | –
3 | Nc1ccc2cc3ccccc3cc2c1 [2-aminoanthracene, reference compound] | – | – | – | – | – | – | – | – | – | – | – | – | – | – | – | 205 | 260 | –
4 | C#Cc1cccc(Nc2ncnc3cc(OCC)c(NC(=O)/C=C/CN4CCCCC4)cc23)c1 [Compound 11, (E)-N-(7-ethoxy-4-((3-ethynylphenyl)amino)quinazolin-6-yl)-4-(piperidin-1-yl)but-2-enamide] | 30.11 | 83.25 | 2.95 | 85.2 | negative | 1.7 | 22 | 10 | 13 | 18 | 12 | 14 | 12 | 23 | 22 | – | – | significant better tumor growth inhibition compared with Dacomitinib
